In PubChem BioAssay (NCI):
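Interpolation was linear, between the two tested concentrations surrounding the appropriate level; five concentrations were tested over 48 hours in 96-well plates. TGI: total growth inhibition.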

Tests used:
Assay in all cases: DTP human tumour cell line panel, 48 h
DLD-1 colon = tested on: DLD-1 colon
LXFL 529 NSCLC = tested on: LXFL 529 NSCLC
DMS 114 small cell lung = tested on: DMS 114 small cell lung
HOP-18 NSCLC = tested on: HOP-18 NSCLC
RXF-631 renal = tested on: RXF-631 renal
XF 498 CNS = tested on: XF 498 CNS

SMILES: Nc1c(-c2ccccc2[N+](=O)[O-])nc2ccccn12
- TGI (DLD-1 colon): > 100 µM
- TGI (LXFL 529 NSCLC): > 100 µM
- TGI (DMS 114 small cell lung): > 100 µM

SMILES: Cc1ccc(C(O)(c2ccc(C)cc2)c2ccccn2)cc1
- TGI (HOP-18 NSCLC): > 100 µM
- TGI (DLD-1 colon): > 100 µM
- TGI (RXF-631 renal): > 100 µM
- TGI (DMS 114 small cell lung): > 100 µM

SMILES: CCCCOCc1cc(CN2CCN(C)CC2)c(O)c2ncccc12
- TGI (HOP-18 NSCLC): 39.9 µM
- TGI (DLD-1 colon): > 100 µM
- TGI (RXF-631 renal): > 100 µM
- TGI (XF 498 CNS): > 100 µM
- TGI (LXFL 529 NSCLC): > 100 µM
- TGI (DMS 114 small cell lung): 23.9 µM

SMILES: c1cncc(O[Si](Oc2cccnc2)(Oc2cccnc2)Oc2cccnc2)c1
- TGI (HOP-18 NSCLC): > 100 µM
- TGI (DLD-1 colon): > 100 µM
- TGI (RXF-631 renal): > 100 µM
- TGI (XF 498 CNS): > 100 µM
- TGI (DMS 114 small cell lung): > 100 µM
